ChEMBL document CHEMBL1144261, “Synthesis of alkyne derivatives of a novel triazolopyrazine as A(2A) adenosine receptor antagonists” (Bioorg Med Chem Lett, 2005)

Assays:
Adenosine receptor A2a = Adenosine receptor A2a (Rattus norvegicus, UniProt P30543); experiment: Binding affinity towards Adenosine A2A receptor of rat brain tissues using [3H]ZM-241385 as radioligand
Adenosine receptor A1 = biological target: T1, Adenosine receptor A1 (Rattus norvegicus, UniProt P25099); experiment: Binding affinity towards Adenosine A1 receptor of rat cerebral cortex using [3H]-DPCPX as radioligand
T1 sequence (P25099 whole entry): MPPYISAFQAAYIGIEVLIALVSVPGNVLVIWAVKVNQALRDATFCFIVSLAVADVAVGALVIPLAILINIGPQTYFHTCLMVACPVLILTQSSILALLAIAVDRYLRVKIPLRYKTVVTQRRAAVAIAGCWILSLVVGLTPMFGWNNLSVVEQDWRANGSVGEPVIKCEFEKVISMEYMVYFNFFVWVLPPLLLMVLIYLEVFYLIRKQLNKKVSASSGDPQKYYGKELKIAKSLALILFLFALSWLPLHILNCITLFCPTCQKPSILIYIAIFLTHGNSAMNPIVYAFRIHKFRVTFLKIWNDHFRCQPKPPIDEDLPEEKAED

Sequence of Adenosine receptor A2a (P30543 whole entry): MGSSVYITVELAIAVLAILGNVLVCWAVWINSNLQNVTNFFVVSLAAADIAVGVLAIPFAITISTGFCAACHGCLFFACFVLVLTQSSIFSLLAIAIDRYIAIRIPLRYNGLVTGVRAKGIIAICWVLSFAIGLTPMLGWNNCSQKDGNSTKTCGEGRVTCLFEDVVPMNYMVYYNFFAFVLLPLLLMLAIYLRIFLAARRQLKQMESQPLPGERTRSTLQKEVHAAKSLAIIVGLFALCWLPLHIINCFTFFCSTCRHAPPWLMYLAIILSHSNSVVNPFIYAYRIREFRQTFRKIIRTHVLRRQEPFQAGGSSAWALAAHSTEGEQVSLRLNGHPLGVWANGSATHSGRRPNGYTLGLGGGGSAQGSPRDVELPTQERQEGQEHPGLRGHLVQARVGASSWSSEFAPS

Row | SMILES | Ki (Adenosine receptor A2a) | Ki (Adenosine receptor A1)
1 | Nc1nc(C#CCC2CCCCC2)cn2nc(-c3ccco3)nc12 | 280 nM | 680 nM
2 | Nc1nc(C#CC(O)c2ccccc2)cn2nc(-c3ccco3)nc12 (centres undefined) | 340 nM | 2400 nM
3 | CC(O)(C#Cc1cn2nc(-c3ccco3)nc2c(N)n1)c1ccccc1 (centres undefined) | 12 nM | 41 nM
4 | Nc1nc(C#CC(O)C2(O)CCC2)cn2nc(-c3ccco3)nc12 (centres undefined) | 12 nM | 2.5 nM
5 | Nc1nc(C#CCOc2ccc(F)c(Cl)c2)cn2nc(-c3ccco3)nc12 | 310 nM | 4300 nM
6 | CN(C)c1ccc(C(O)(C#Cc2cn3nc(-c4ccco4)nc3c(N)n2)C(F)(F)F)cc1 (centres undefined) | 1100 nM | 
7 | CC(O)(C#Cc1cn2nc(-c3ccco3)nc2c(N)n1)Cc1ccncc1 (centres undefined) | 1.1 nM | 100 nM
8 | Nc1nc(C#Cc2ccc(F)cc2F)cn2nc(-c3ccco3)nc12 | > 1000 nM | 
9 | Nc1nc(C#CCO)cn2nc(-c3ccco3)nc12 | > 500 nM | > 500 nM
10 | CC(O)(C#Cc1cn2nc(-c3ccco3)nc2c(N)n1)c1cccc(C(F)(F)F)c1F (centres undefined) | 1600 nM | 
11 | Nc1nc(C#CCOc2ccccc2)cn2nc(-c3ccco3)nc12 | 390 nM | 530 nM
12 | Nc1nc(C#CC(O)c2csc3ccccc23)cn2nc(-c3ccco3)nc12 (centres undefined) | 260 nM | 73 nM

More lines, in order of falling Ki (Adenosine receptor A2a), values ahead:

Row | Ki (Adenosine receptor A2a) | Ki (Adenosine receptor A1) | SMILES
13 | 210 nM | 35 nM | Nc1nc(C#CC2(N)CCCCC2)cn2nc(-c3ccco3)nc12
14 | 92 nM | 110 nM | Nc1nc(C#CCOc2cccnc2)cn2nc(-c3ccco3)nc12
15 | 89 nM | 1800 nM | Cn1nc(OCC#Cc2cn3nc(-c4ccco4)nc3c(N)n2)cc1C(F)(F)F
16 | 74 nM | 2200 nM | Nc1nc(C#CC(O)(c2ccccc2)C(F)(F)F)cn2nc(-c3ccco3)nc12 (centres undefined)
17 | 42 nM | 66 nM | CC(O)(C#Cc1cn2nc(-c3ccco3)nc2c(N)n1)c1ccc(O)cc1 (centres undefined)
18 | 37 nM | 96 nM | CC(C#Cc1cn2nc(-c3ccco3)nc2c(N)n1)OC(C)(C)C (centres undefined)
19 | 33 nM | 340 nM | CC(O)(C#Cc1cn2nc(-c3ccco3)nc2c(N)n1)c1csc2ccccc12 (centres undefined)
20 | 33 nM | 110 nM | CC(O)(C#Cc1cn2nc(-c3ccco3)nc2c(N)n1)c1ccc([N+]2=CC=NC2)cc1 (centres undefined)
21 | 30 nM | 72 nM | Nc1nc(C#CC(O)C2(O)CCCC2)cn2nc(-c3ccco3)nc12 (centres undefined)
22 | 25 nM | 170 nM | CC(O)(C#Cc1cn2nc(-c3ccco3)nc2c(N)n1)c1ccncc1 (centres undefined)
23 | 9 nM | 33 nM | CCC(O)(C#Cc1cn2nc(-c3ccco3)nc2c(N)n1)CC
24 | 7.3 nM | 11 nM | Nc1nc(C#CC(O)C2(O)CCCCC2)cn2nc(-c3ccco3)nc12 (centres undefined)
25 | 7 nM | 8 nM | CC(C)C(O)(C#Cc1cn2nc(-c3ccco3)nc2c(N)n1)C(C)C
26 | 3.7 nM | 24 nM | CC(C)CCC(C)(O)C#Cc1cn2nc(-c3ccco3)nc2c(N)n1 (centres undefined)
